Data published in patent US9113629B2, “4-amino-6-(4-substituted-phenyl)-picolinates and 6-amino-2-(4-substituted-phenyl)-pyrimidine-4-carboxylates and their use as herbicides” (DOW AGROSCIENCES LLC, priority 2013, dated 2015).
Where two headings read alike, the source gives them in different places.

Legend:
[1] = system: Key Broadleaf Weed and Crop Species; assay: Post-emergent Test II herbicidal activity (Table 5); format: in vivo; conditions: post-emergence, 336 h, 14 days after application; for pest or weed control at 70 g/ha: application rate 70 g ai/ha; for pest or weed control at 140 g/ha: application rate 140 g ai/ha
Summary of the method: (§1)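 Plants grown in Metro-Mix 360 (pH 6.0–6.8) in a greenhouse (~15 h photoperiod, 23–29 °C day) to first or second true leaf stage, then sprayed with compound in acetone/DMSO/aqueous crop-oil-surfactant carrier at 187 L/ha by track sprayer. Injury visually scored 0–100% versus untreated plants after 14 d.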

[2] = system: Key Grass and Sedge Weeds as well as Grass Crops; assay: Post-emergent Test II herbicidal activity (Table 6); format: in vivo; conditions: post-emergence, 336 h; for pest or weed control at 70 g/ha: 70 g ai/ha; for pest or weed control at 140 g/ha: 140 g ai/ha
Summary of the method: as §1

[3] = ABUTH: velvetleaf (Abutilon theophrasti), read-out: Visual Growth Reduction (%) 14 Days After Application, ABUTH
[4] = AMARE: redroot pigweed (Amaranthus retroflexus), read-out: Visual Growth Reduction (%) 14 Days After Application, AMARE
[5] = BRSNN: oilseed-rape, canola (Brassica napus), read-out: Visual Growth Reduction (%) 14 Days After Application, BRSNN
[6] = CHEAL: lambsquarters (Chenopodium album), read-out: Visual Growth Reduction (%) 14 Days After Application, CHEAL
[7] = EPHHL: wild poinsettia (Euphorbia heterophylla), read-out: Visual Growth Reduction (%) 14 Days After Application, EPHHL
[8] = HELAN: sunflower (Helianthus annuus), read-out: Visual Growth Reduction (%) 14 Days After Application, HELAN
[9] = VIOTR: wild pansy (Viola tricolor), read-out: Visual Growth Reduction (%) 14 Days After Application, VIOTR
[10] = CYPES: yellow nutsedge (Cyperus esculentus), read-out: Visual Growth Reduction (%) 14 Days After Application, CYPES
[11] = DIGSA: crabgrass (Digitaria sanguinalis), read-out: Visual Growth Reduction (%) 14 Days After Application, DIGSA
[12] = ECHCG: barnyardgrass (Echinochloa crus-galli), read-out: Visual Growth Reduction (%) 14 Days After Application, ECHCG
[13] = ORYSA: rice (Oryza sativa), crop, read-out: Visual Growth Reduction (%) 14 Days After Application, ORYSA
[14] = SETFA: giant foxtail (Setaria faberi), read-out: Visual Growth Reduction (%) 14 Days After Application, SETFA
[15] = SORVU: grain sorghum (Sorghum vulgare), read-out: Visual Growth Reduction (%) 14 Days After Application, SORVU
[16] = TRZSS (wheat, Triticum aestivum), crop, read-out: Visual Growth Reduction (%) 14 Days After Application, TRZSS
[17] = ZEAMX: maize, corn (Zea mays), crop, read-out: Visual Growth Reduction (%) 14 Days After Application, ZEAMX

| Structure (SMILES) | pest or weed control at 70 g/ha [1, 3] [%] | pest or weed control at 140 g/ha [1, 3] [%] | pest or weed control at 70 g/ha [1, 4] [%] | pest or weed control at 140 g/ha [1, 4] [%] | pest or weed control at 70 g/ha [1, 5] [%] | pest or weed control at 140 g/ha [1, 5] [%] | pest or weed control at 70 g/ha [1, 6] [%] | pest or weed control at 140 g/ha [1, 6] [%] | pest or weed control at 70 g/ha [1, 7] [%] | pest or weed control at 140 g/ha [1, 7] [%] | pest or weed control at 70 g/ha [1, 8] [%] | pest or weed control at 140 g/ha [1, 8] [%] | pest or weed control at 70 g/ha [1, 9] [%] | pest or weed control at 140 g/ha [1, 9] [%] | pest or weed control at 70 g/ha [2, 10] [%] | pest or weed control at 140 g/ha [2, 10] [%] | pest or weed control at 70 g/ha [2, 11] [%] | pest or weed control at 140 g/ha [2, 11] [%] | pest or weed control at 70 g/ha [2, 12] [%] | pest or weed control at 140 g/ha [2, 12] [%] | other results |
| --- | --- | --- | --- | --- | --- | --- | --- | --- | --- | --- | --- | --- | --- | --- | --- | --- | --- | --- | --- | --- | --- |
| COC(=O)c1nc(-c2ccc(Br)c(F)c2F)c(F)c(N)c1Cl [Compound 109, methyl 4-amino-6-(4-bromo-2,3-difluorophenyl)-3-chloro-5-fluoropicolinate] | 95 to 100 | 95 to 100 | 95 to 100 | 95 to 100 | 95 to 100 | 95 to 100 | 95 to 100 | 95 to 100 | 95 to 100 | 95 to 100 | 0 to 29 | 95 to 100 | 95 to 100 | 95 to 100 | 95 to 100 | 95 to 100 | 85 to 94 | 95 to 100 | 95 to 100 | 95 to 100 | pest or weed control at 70 g/ha [2, 13]: 45 to 59%; pest or weed control at 140 g/ha [2, 13]: 45 to 59%; pest or weed control at 70 g/ha [2, 14]: 95 to 100%; pest or weed control at 140 g/ha [2, 14]: 95 to 100%; pest or weed control at 70 g/ha [2, 15]: 85 to 94%; pest or weed control at 140 g/ha [2, 15]: 95 to 100%; pest or weed control at 70 g/ha [2, 16]: 45 to 59%; pest or weed control at 140 g/ha [2, 16]: 60 to 74%; pest or weed control at 70 g/ha [2, 17]: 85 to 94%; pest or weed control at 140 g/ha [2, 17]: 85 to 94% |
| COC(=O)c1nc(-c2ccc(I)cc2)c(F)c(N)c1Cl [Compound 118, Methyl 4-amino-6-(4-iodophenyl)-3-chloro-5-fluoropicolinate] | 95 to 100 | 95 to 100 | 95 to 100 | 95 to 100 | 95 to 100 | 95 to 100 | 95 to 100 | 95 to 100 | 95 to 100 | 95 to 100 | 95 to 100 | 95 to 100 | 85 to 94 | 95 to 100 | 95 to 100 | 95 to 100 | 75 to 84 | 85 to 94 | 95 to 100 | 95 to 100 | pest or weed control at 70 g/ha [2, 13]: 30 to 44%; pest or weed control at 140 g/ha [2, 13]: 45 to 59%; pest or weed control at 70 g/ha [2, 14]: 45 to 59%; pest or weed control at 140 g/ha [2, 14]: 60 to 74%; pest or weed control at 70 g/ha [2, 15]: 95 to 100%; pest or weed control at 140 g/ha [2, 15]: 95 to 100%; pest or weed control at 70 g/ha [2, 16]: 75 to 84%; pest or weed control at 140 g/ha [2, 16]: 75 to 84%; pest or weed control at 70 g/ha [2, 17]: 60 to 74%; pest or weed control at 140 g/ha [2, 17]: 85 to 94% |
| N#Cc1ccc(-c2nc(C(=O)O)c(Cl)c(N)c2F)cc1 [Compound 39] | 30 to 44 | 60 to 74 | 0 to 29 | 0 to 29 | 0 to 29 | 30 to 44 | 85 to 94 | 95 to 100 | 85 to 94 | 95 to 100 | 95 to 100 | 95 to 100 | 30 to 44 | 30 to 44 | 60 to 74 | 75 to 84 | 30 to 44 | 45 to 59 | 85 to 94 | 85 to 94 | pest or weed control at 70 g/ha [2, 13]: 0 to 29%; pest or weed control at 140 g/ha [2, 13]: 0 to 29%; pest or weed control at 70 g/ha [2, 14]: 0 to 29%; pest or weed control at 140 g/ha [2, 14]: 30 to 44%; pest or weed control at 70 g/ha [2, 15]: 30 to 44%; pest or weed control at 140 g/ha [2, 15]: 60 to 74%; pest or weed control at 70 g/ha [2, 16]: 30 to 44%; pest or weed control at 140 g/ha [2, 16]: 45 to 59%; pest or weed control at 70 g/ha [2, 17]: 60 to 74%; pest or weed control at 140 g/ha [2, 17]: 60 to 74% |
